Where a SMILES comes first, the peptide text is derived from it. Bridges are numbered along the chain shown (N, C = ends). [ ]: non-standard residue; d: D form. S5 = C=CCCC[C@](C)(N)C(=O)O
Columns and labels:
α-chymotrypsin [1] = molecular target: α-chymotrypsin (Bos taurus, UniProt P00766); experiment: Protease stability in α-chymotrypsin solution; format: in vitro ADME; conditions: α-chymotrypsin, PBS pH 7.4, room temperature
Method: (§1) The peptides were dissolved in PBS (pH 7.4) to a final concentration of 1 × 10^−3 M. α‐Chymotrypsin was dissolved in PBS (5 × 10^−2 M, containing 2 × 10^−3 M CaCl2, pH 7.4) to a final concentration of 0.5 ng µL^−1. Subsequently, 100 µL peptides were incubated with α‐chymotrypsin (1 mL) at room temperature, and 100 µL of the digestion mixture was collected at different times (5/10/20/30/60/120/240/480 min) and added to a centrifuge tube containing 20 µL of 1 M HCl to quench the enzymatic reaction. The solution of α‐Chymotrypsin peptide fragments was monitored by analytical HPLC to determine the fraction of protease degradation at 214 nm.

α-chymotrypsin [2] = experiment: Protease stability in α-chymotrypsin solution; format: in vitro ADME; conditions: α-chymotrypsin solution; α-chymotrypsin 0.5 ng µL^−1 in PBS (5 × 10^−2 M, 2 × 10^−3 M CaCl2, pH 7.4); 100 µL of 1 × 10^−3 M peptide + 1 mL enzyme; room temperature; 5-480 min; quenched with 1 M HCl; analytical HPLC at 214 nm
Method: as §1

MCF7 cells [3] = experiment: Western blot of Nur77, CD36 and FABP4; format: cell-based, human
Method: MCF7 and MDA‐MB‐231 cells were treated with various concentrations of peptide. The cells were then collected and lysed in NP40 lysis buffer. Total protein was quantified using a BCA assay kit (Beyotime, P0010S). The proteins were separated by SDS‐PAGE and transferred onto a PVDF membrane. The PVDF membrane was blocked in TBST containing 5% non‐fat milk, and then incubated with primary antibodies overnight at 4 °C. Subsequently, membranes were incubated with horseradish peroxidase‐conjugated antirabbit or antimouse IgG secondary antibody for 1 h at room temperature. The membranes were analyzed by a Tanon‐5200 Multi Gel Imaging Analysis System (Tanon) and quantified by ImageJ software.

MCF7 cells [4] = experiment: Energy metabolism analysis (Seahorse OCR); format: cell-based, human; conditions: MCF7, 24 h treatment, n = 3
Method: Cell energy metabolism analysis was conducted using a Seahorse cell energy metabolism analyzer (Agilent, USA). In brief, 8000 cells were seeded per well in a 96‐well XF96 plate (Agilent, 103794‐100) and cultured overnight. Subsequently, the cells were treated with various concentrations of peptides for 24 h. To prepare for metabolic stress injections, cartridge plates (Agilent, w15023) were hydrated with H2O for at least 12 h at 37 °C before the assay. 1 h before detection, the medium in each well was replaced with 180 µL XF calibrant solution (Agilent, 100840‐000), Afterward, the cell plate was replaced with 180 µL XF DMEM (Agilent, 103575‐100) with glucose (1 × 10^−2 M) (Agilent, 103577‐100), pyruvate (1 × 10^−3 M) (Agilent, 103578‐100) and glutamine (2 × 10^−3 M) (Agilent, 103579‐100) and the mixture was incubated in a CO2‐free incubator at 37 °C for 1 h. Then, 20 µL basic medium, 22 µL 1.5 × 10^−4 M oligomycin, 25 µL 1.5 × 10^−4 M FCCP, and 27 µL 5 × 10^−5 M ROT/AA (Agilent, 10315‐100) were added to wells A, B, C, and D, respectively, of the cartridge plates. The assay was carried out according to the manufacturer's instructions, and the OCR was reported in picomoles per min. The results were normalized to the cell number determined by the CCK‐8 assay.

MDA-MB-231 cells = experiment: Scratch (wound-healing) assay; format: cell-based; conditions: MDA-MB-231, 12 h
Method: MCF7 and MDA‐MB‐231 cells were seeded in 6‐well plates and cultured overnight. Once the cell density reached 90%, a line was scratched along the center of the 6‐well plate and images were taken randomly in the scratch domain under a microscope. The cells in each well were then treated with peptides of varying concentrations for 12 h, after which images were taken again in the scratch domain. The formula used to calculate the scratch healing rate was as follows: Scratch healing rate (%) = [(Scratch area at 0 h – Scratch area at 12 h) […] Scratch area at 0 h] × 100%.

[5] = system: MDA-BoM-1833 bone metastasis; experiment: Bone metastatic breast cancer model (MDA-BoM-1833, left ventricle injection); format: in vivo, mouse
Text: Female BALB/c mice (4–5 weeks old, 16–18 g) and BALB/c mice (7–8 weeks old, 18–20 g) were provided by Shanghai Slake Experimental Animal Co., Ltd., and housed under specific pathogen‐free conditions for use in orthotopic xenograft tumor model experiments and bone metastasis tumor model experiments. The animal experiment was approved by the ethical committee of Shanghai University of Traditional Chinese Medicine (approval number: PZSHUTCM220627036).
To establish the bone metastasis tumor model, 1×10^5 cells were injected into the left ventricle of each mouse (7–8 weeks old), and surgery was monitored using a cardiac ultrasound instrument. The mice were randomly divided into three groups and treated with PBS (control group, n = 6), 5 mg kg^−1 ST‐CY14 (n = 6), and 10 mg kg^−1 ST‐CY14 (n = 6) Tumor cell metastasis was monitored using an in vivo imaging instrument (IVIS Spectrum, PerkinElmer, USA). by intraperitoneal injection of 20 mg kg^−1 D‐luciferin. The mice were treated with ST‐CY14 via intravenous injection using a 100 µL PBS solution every 2 days starting on the designated day after tumor cell injection. Bone tissue with MDA‐BoM‐1833 cell metastasis was obtained and stained for TRAP. The mice sera were collected and analyzed for BSP and β‐CTx levels using ELISA (Lengton, BPE10823, BPE10438). For the orthotopic xenograft tumor model, 3×10^6 cells were injected into the fourth pair of breast pads on the left side of the mouse (4–5 weeks old). The mice were treated with ST‐CY14 every two days once the tumor volume reached 30–50 mm^3, with the same groups as in the bone metastasis tumor model. The tumors were collected and stained for H&E, Ki‐67, and TUNEL assays, which were conducted by Wuhan Servicebio Technology Co., Ltd. Major organs (heart, liver, spleen, lung, and kidney) were also collected for H&E analysis by Wuhan Servicebio Technology Co., Ltd. The Transcriptome and LC/MS targeted lipid metabolome were sequenced by OE Biotech, Inc., Shanghai, China. To evaluate the efficacy of Csn‐B in inhibiting breast cancer bone metastasis, an animal model was established as described above. The mice were randomly divided into three groups and treated with PBS (control group, n = 6), 10 mg kg^−1 ST‐CY14 (n = 6) in 100 µL PBS solution, and 5 mg kg^−1 ST‐CY14 (n = 6) in a 100 µL mixed solution (5% DMSO, 20% PEG 400, 5% Tween 80, and 70% normal saline) via intravenous injection every 2 days starting on the designated day after tumor cell injection.

With `C[C@@H](O)[C@@H]1NC(=O)[C@H](CCCNC(=N)N)NC(=O)[C@H](CCCNC(=N)N)NC(=O)[C@@](C)(NC(=O)[C@H](Cc2ccccc2)NC(=O)CNC(=O)[C@H](CCCCN)NC(=O)[C@H](CS)NC(=O)CNC(=O)[C@H](CCC(=O)O)NC(=O)[C@@H](N)CS)CCCC=CCCC[C@@](C)(C(=O)N[C@@H](CCCNC(=N)N)C(=O)N[C@@H](Cc2ccc(O)cc2)C(=O)N[C@@H](Cc2ccc(O)cc2)C(=O)NCC(=O)N[C@@H](CCCNC(=N)N)C(=O)N[C@@H](CCCCN)C(=O)N[C@@H](CCCCN)C(=O)N[C@@H](CCCNC(=N)N)C(=O)N[C@@H](CCCNC(=N)N)C(=O)N[C@@H](CCC(N)=O)C(=O)N[C@@H](CCCNC(=N)N)C(=O)N[C@@H](CCCNC(=N)N)C(=O)N[C@@H](CCCNC(=N)N)C(N)=O)NC1=O` [ST-CY14] (H-CEGCKGF[S5]RRT[S5]RYYGRKKRRQRRR-NH2; staple 8-12) as the molecule, how does the “Improvement of proteolytic half-life versus T-CY14” value (α-chymotrypsin [1]) read?
The value was “seventeen‐fold improvement”.

And the half-life at 90.9 µM (α-chymotrypsin [2])?
Its half-life at 90.9 µM is 1.46 h.

What about the “CD36 and FABP4 protein expression (immunoblot)” value (MCF7 cells [3]) of the same molecule?
The value was “inhibited the protein expression of CD36 and FABP4”.

And the “Nur77 protein expression (immunoblot)” value (MCF7 cells [3])?
Its value is “increase in Nur77 expression”.

And the “Oxygen consumption rate (OCR)” value (MCF7 cells [4])?
The value was “significantly reduced”.

And the Scratch healing (MDA-MB-231 cells)?
The Scratch healing was “suppressed the scratch healing”.

What about the “Bone metastasis (bioluminescence imaging)” value ([5]; 5 and 10 mg kg^−1 i.v. every 2 days, day 28, n = 6) of the same molecule?
The value was “inhibited the metastasis of tumor cells”.

What about the “H&E staining of major organs” value ([5]; heart, liver, spleen, lung, kidney, n = 3) of the same molecule?
Its value is “None of the groups demonstrated notable changes in H&E staining of major organs”.

What about the “Efficacy in inhibiting bone metastasis compared with Csn-B” value ([5]; i.v. every 2 days, day 28, n = 6) of the same molecule?
Its value is “superior to that of Csn‐B”.

What about the “TRAP level in mouse femoral head” value ([5]; staining of bone tissue) of the same molecule?
Its value is “decrease in the level of tartrate‐resistant acid phosphatase”.

What about the “BSP and β-CTx levels in mouse blood (ELISA)” value ([5]; versus control group) of the same molecule?
The value was “Lower levels”.
